Assay results taken from PubChem BioAssay (NCI).
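Compound exposure: 48 hours, 5 concentrations, 96-well plates. TGI: total growth inhibition.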

Experiments:
Assay in all cases: NCI tumour cell line growth inhibition, 48 h
786-0 renal = test system: 786-0 renal
A498 renal = test system: A498 renal
A549 NSCLC = test system: A549 NSCLC
ACHN renal = test system: ACHN renal
BT-549 breast = test system: BT-549 breast
CAKI-1 renal = test system: CAKI-1 renal
CCRF-CEM leukemia = test system: CCRF-CEM leukemia
COLO 205 colon = test system: COLO 205 colon
DU-145 prostate = test system: DU-145 prostate
EKVX NSCLC = test system: EKVX NSCLC
HCC-2998 colon = test system: HCC-2998 colon
HCT-116 colon = test system: HCT-116 colon
HCT-15 colon = test system: HCT-15 colon
HOP-62 NSCLC = test system: HOP-62 NSCLC
HOP-92 NSCLC = test system: HOP-92 NSCLC
HS 578T breast = test system: HS 578T breast
HT29 colon = test system: HT29 colon
IGROV1 ovarian = test system: IGROV1 ovarian
K-562 leukemia = test system: K-562 leukemia
KM12 colon = test system: KM12 colon
LOX IMVI melanoma = test system: LOX IMVI melanoma
M14 melanoma = test system: M14 melanoma
MALME-3M melanoma = test system: MALME-3M melanoma
MCF7 breast = test system: MCF7 breast
MDA-MB-231 breast = test system: MDA-MB-231 breast
MDA-MB-435 = test system: MDA-MB-435
MDA-N = test system: MDA-N
MOLT-4 leukemia = test system: MOLT-4 leukemia
NCI-H23 lung = test system: NCI-H23 lung
NCI-H460 lung = test system: NCI-H460 lung
NCI-H522 lung = test system: NCI-H522 lung
NCI/ADR-RES ovarian = test system: NCI/ADR-RES ovarian
OVCAR-3 ovarian = test system: OVCAR-3 ovarian
OVCAR-4 ovarian = test system: OVCAR-4 ovarian
OVCAR-5 ovarian = test system: OVCAR-5 ovarian
OVCAR-8 ovarian = test system: OVCAR-8 ovarian
PC-3 prostate = test system: PC-3 prostate
RPMI-8226 leukemia = test system: RPMI-8226 leukemia
SF-268 CNS = test system: SF-268 CNS
SF-295 CNS = test system: SF-295 CNS
SF-539 CNS = test system: SF-539 CNS
SK-MEL-28 melanoma = test system: SK-MEL-28 melanoma
SK-MEL-5 melanoma = test system: SK-MEL-5 melanoma
SK-OV-3 ovarian = test system: SK-OV-3 ovarian
SN12C renal = test system: SN12C renal
SNB-19 CNS = test system: SNB-19 CNS
SNB-75 CNS = test system: SNB-75 CNS
SR leukemia = test system: SR leukemia
SW-620 colon = test system: SW-620 colon
T-47D breast = test system: T-47D breast
TK-10 renal = test system: TK-10 renal
U251 CNS = test system: U251 CNS
UACC-257 melanoma = test system: UACC-257 melanoma
UACC-62 melanoma = test system: UACC-62 melanoma
UO-31 renal = test system: UO-31 renal
HL-60(TB) leukemia = test system: HL-60(TB) leukemia
NCI-H226 lung = test system: NCI-H226 lung
SK-MEL-2 melanoma = test system: SK-MEL-2 melanoma

Structure (SMILES): CO/N=C(\C(=O)Nc1cncs1)c1csc(N)n1
- TGI (786-0 renal): > 10 µM
- TGI (A498 renal): > 10 µM
- TGI (A549 NSCLC): > 10 µM
- TGI (ACHN renal): > 10 µM
- TGI (BT-549 breast): > 10 µM
- TGI (CAKI-1 renal): > 10 µM
- TGI (CCRF-CEM leukemia): > 10 µM
- TGI (COLO 205 colon): > 10 µM
- TGI (DU-145 prostate): > 10 µM
- TGI (EKVX NSCLC): > 10 µM
- TGI (HCC-2998 colon): > 10 µM
- TGI (HCT-116 colon): > 10 µM
- TGI (HCT-15 colon): > 10 µM
- TGI (HOP-62 NSCLC): > 10 µM
- TGI (HOP-92 NSCLC): > 10 µM
- TGI (HS 578T breast): > 10 µM
- TGI (HT29 colon): > 10 µM
- TGI (IGROV1 ovarian): > 10 µM
- TGI (K-562 leukemia): > 10 µM
- TGI (KM12 colon): > 10 µM
- TGI (LOX IMVI melanoma): > 10 µM
- TGI (M14 melanoma): > 10 µM
- TGI (MALME-3M melanoma): > 10 µM
- TGI (MCF7 breast): > 10 µM
- TGI (MDA-MB-231 breast): > 10 µM
- TGI (MDA-MB-435): > 10 µM
- TGI (MDA-N): > 10 µM
- TGI (MOLT-4 leukemia): > 10 µM
- TGI (NCI-H23 lung): > 10 µM
- TGI (NCI-H460 lung): > 10 µM
- TGI (NCI-H522 lung): > 10 µM
- TGI (NCI/ADR-RES ovarian): > 10 µM
- TGI (OVCAR-3 ovarian): > 10 µM
- TGI (OVCAR-4 ovarian): > 10 µM
- TGI (OVCAR-5 ovarian): > 10 µM
- TGI (OVCAR-8 ovarian): > 10 µM
- TGI (PC-3 prostate): > 10 µM
- TGI (RPMI-8226 leukemia): > 10 µM
- TGI (SF-268 CNS): > 10 µM
- TGI (SF-295 CNS): > 10 µM
- TGI (SF-539 CNS): > 10 µM
- TGI (SK-MEL-28 melanoma): > 10 µM
- TGI (SK-MEL-5 melanoma): > 10 µM
- TGI (SK-OV-3 ovarian): > 10 µM
- TGI (SN12C renal): > 10 µM
- TGI (SNB-19 CNS): > 10 µM
- TGI (SNB-75 CNS): > 10 µM
- TGI (SR leukemia): > 10 µM
- TGI (SW-620 colon): > 10 µM
- TGI (T-47D breast): > 10 µM
- TGI (TK-10 renal): > 10 µM
- TGI (U251 CNS): > 10 µM
- TGI (UACC-257 melanoma): > 10 µM
- TGI (UACC-62 melanoma): > 10 µM
- TGI (UO-31 renal): > 10 µM

Structure (SMILES): OCCCc1cc(O)c2c(c1)C(CO)C(c1ccc(O)c(O)c1)O2 (stereo not given)
- TGI (786-0 renal): > 100 µM
- TGI (A498 renal): > 100 µM
- TGI (A549 NSCLC): > 100 µM
- TGI (ACHN renal): > 100 µM
- TGI (BT-549 breast): > 100 µM
- TGI (CAKI-1 renal): > 100 µM
- TGI (CCRF-CEM leukemia): > 100 µM
- TGI (COLO 205 colon): > 100 µM
- TGI (DU-145 prostate): > 100 µM
- TGI (EKVX NSCLC): > 100 µM
- TGI (HCC-2998 colon): > 100 µM
- TGI (HCT-116 colon): > 100 µM
- TGI (HCT-15 colon): > 100 µM
- TGI (HL-60(TB) leukemia): > 100 µM
- TGI (HOP-62 NSCLC): > 100 µM
- TGI (HOP-92 NSCLC): > 100 µM
- TGI (HS 578T breast): > 100 µM
- TGI (HT29 colon): > 100 µM
- TGI (IGROV1 ovarian): > 100 µM
- TGI (K-562 leukemia): > 100 µM
- TGI (KM12 colon): > 100 µM
- TGI (LOX IMVI melanoma): > 100 µM
- TGI (M14 melanoma): > 100 µM
- TGI (MALME-3M melanoma): > 100 µM
- TGI (MCF7 breast): > 100 µM
- TGI (MDA-MB-231 breast): > 100 µM
- TGI (MDA-MB-435): > 100 µM
- TGI (MDA-N): > 100 µM
- TGI (MOLT-4 leukemia): > 100 µM
- TGI (NCI-H226 lung): > 100 µM
- TGI (NCI-H23 lung): > 100 µM
- TGI (NCI-H460 lung): > 100 µM
- TGI (NCI-H522 lung): > 100 µM
- TGI (NCI/ADR-RES ovarian): > 100 µM
- TGI (OVCAR-3 ovarian): > 100 µM
- TGI (OVCAR-5 ovarian): > 100 µM
- TGI (OVCAR-8 ovarian): > 100 µM
- TGI (PC-3 prostate): > 100 µM
- TGI (SF-268 CNS): > 100 µM
- TGI (SF-295 CNS): > 100 µM
- TGI (SF-539 CNS): > 100 µM
- TGI (SK-MEL-2 melanoma): > 100 µM
- TGI (SK-MEL-28 melanoma): > 100 µM
- TGI (SK-MEL-5 melanoma): > 100 µM
- TGI (SK-OV-3 ovarian): > 100 µM
- TGI (SN12C renal): > 100 µM
- TGI (SNB-19 CNS): > 100 µM
- TGI (SR leukemia): > 100 µM
- TGI (SW-620 colon): > 100 µM
- TGI (T-47D breast): > 100 µM
- TGI (TK-10 renal): > 100 µM
- TGI (U251 CNS): > 100 µM
- TGI (UACC-257 melanoma): > 100 µM
- TGI (UACC-62 melanoma): > 100 µM
- TGI (UO-31 renal): > 100 µM
